From patent publication US5270344A, “Method of treating a systemic disorder using trioxolane and diperoxide compounds” (priority 1992, dated 1993) come the findings set out here.

≈ marks a conversion by molar mass, not a printed value. Read-outs that look alike come from different tables or passages of the source.

Data set [1] relates to EPEC/ETEC. The class given is cell-based, enteropathogenic/enterotoxigenic Escherichia coli.
For the next data set, the system named is Leishmania major. Also on record: species or system balb/c mice. The following applies: mouse, in vivo.
Data set [2] concerns Shigella. Format: cell-based, Shigella spp.
Data set [3] deals with Pseudomonas. Format: cell-based, Pseudomonas spp.
The subject of the next data set is human spermatozoa. Format: cell-based.
In data set [4] the test system is Shigella. The class given is cell-based, Shigella spp. This is another data set of the same source.
The test system of data set [5] is Pseudomonas. The class given is cell-based, Pseudomonas spp. This is another data set of the same source.
Data set [6] has as its system EPEC/ETEC. The class given is cell-based, enteropathogenic/enterotoxigenic Escherichia coli. The source holds these as a separate data set.
In data set [7] the test system is Pseudomonas. Format: cell-based, Pseudomonas spp. This is another data set of the same source.
In data set [8] the test system is Candida. Format: cell-based, Candida spp.
A further data set relates to N. gonorrhoea. Format: cell-based, Neisseria gonorrhoea.
Data set [9] deals with commonly encountered microorganisms. Format: cell-based, bacteria and fungi.
The subject of data set [10] is Candida. Format: cell-based, Candida spp. This is another data set of the same source.
A further data set has as its system Archromobacter. Format: cell-based, Achromobacter.
A further data set concerns Cryptococcus. Format: cell-based, Cryptoccus spp.
The subject of data set [11] is Candida. Format: cell-based, Candida spp. This is another data set of the same source.
In the next data set the test system is lymphocytes. Also on record: species or system Balb/c mice. The following applies: mouse, in vivo.
Data set [12] concerns S. aureus. The class given is cell-based, Staphylococcus aureus.
The next data set deals with Tri. violaceum. The class given is cell-based, Trichophyton violaceum.
The next data set concerns S. epidermidis. Format: cell-based, Staphylococcus epidermidis.
The test system of data set [13] is S. aureus. The class given is cell-based, Staphylococcus aureus. This is another data set of the same source.
For data set [14], the system named is Salmonella. Format: cell-based, Salmonella spp.
In the next data set the test system is Penicillium. The class given is cell-based, Penicillium spp.
The test system of another data set is Ph. verrucose. Format: cell-based, Phialophora verrucose.
Data set [15] concerns Shigella. The class given is cell-based, Shigella spp. The source holds these as a separate data set.
Data set [16] relates to Salmonella. The class given is cell-based, Salmonella spp. This is another data set of the same source.
Data set [17] relates to Salmonella. The class given is cell-based, Salmonella spp. This is another data set of the same source.
A further data set deals with C. albicans. The class given is cell-based, Candida albicans.
The subject of data set [18] is S. aureus. Format: cell-based, Staphylococcus aureus. This is another data set of the same source.
Data set [19] deals with Salmonella. The class given is cell-based, Salmonella spp. This is another data set of the same source.
Data set [20] relates to EPEC/ETEC. Format: cell-based, enteropathogenic/enterotoxigenic Escherichia coli. The source holds these as a separate data set.
In data set [21] the test system is Pseudomonas. The class given is cell-based, Pseudomonas spp. This is another data set of the same source.
In data set [22] the test system is S. aureus. Format: cell-based, Staphylococcus aureus. This is another data set of the same source.
Data set [23] deals with Myeloma cell line (×63 balb/c line). The class given is cell-based, balb/c (mouse).
Data set [24] has as its system EPEC/ETEC. Format: cell-based, enteropathogenic/enterotoxigenic Escherichia coli. This is another data set of the same source.
A further data set relates to Tri. canis. Format: cell-based, Trichophyton canis.
The next data set deals with Leishmania donova. More on the design: species or system Balb/c mice. The following applies: mouse, in vivo.
Data set [25] relates to Shigella. Format: cell-based, Shigella spp. The source holds these as a separate data set.
Another data set deals with Kiebisella. Format: cell-based, Klebsiella spp.
In the next data set the test system is E. coli. Format: cell-based.
The conditions of data set [26]: rabbit, in vivo.
Protocol: Six healthy New Zealand White rabbits were selected for study. The rabbits' eyes were judged free of irritation prior to the study by examining with a pen light and under UV light after installation of 2% fluorescein stain. A 1% solution of the trioxolane or diperoxide derivative of linalool was prepared in isopropyl myristate. A 0.1 ml portion of this test solution was instilled into the lower conjunctival sac of one eye of each rabbit. The lids were held closed for one second. The opposite eye of each rabbit received 0.1 ml of the isopropyl myristate, as control. […] At 24, 48, and 72 hours post dosing, the eyes were examined with a pen light and re-examined with UV light following fluorescein staining of the cornea.

As usually defined, the MIC is the lowest concentration found to suppress growth. Low values mean inhibition by little substance, high ones a need for much substance. As for `CCC1OOC(CCO)O1` (stereo not drawn) [Trioxolane derivative of cis 3-hexene-1-ol], the MBC with EPEC/ETEC [1] is 1250 µg/mL (≈ 8440 µM); with Shigella [2], 1250 µg/mL (≈ 8440 µM); against Pseudomonas [7] it was 1250 µg/mL (≈ 8440 µM); with Candida [10], 1250 µg/mL (≈ 8440 µM); against Salmonella [14] it was 2500 µg/mL (≈ 16900 µM); with S. aureus [18] it was 1250 µg/mL (≈ 8440 µM). Further, the “Death, Day 14” value in the data set with Leishmania major is recorded as “No death”. The “General health, Day 14” value in the data set on Leishmania major is “Animals healthy and active”. Also, the “Lesions, Day 0” value in the data set on Leishmania major and with Leishmania major (ip) was “Large lesions” in each case. Besides, the “Lesions, Day 14” value in the data set on Leishmania major was “Lesions small and dry”; in the data set with Leishmania major (ip) it was “Lesions scabbed”. The “Dead, Day 14” value with Leishmania major (ip) is recorded as 2 dead. Further, in the data set with Leishmania major (ip), the “Palate involvement, Day 14” value stood at 2. The MIC agar with Pseudomonas [3] turned out to be 7 µg/mL (≈ 47.2 µM); against Candida [11], 31 µg/mL (≈ 209 µM); in the data set on Shigella [15], 7 µg/mL (≈ 47.2 µM); against Salmonella [19], 7 µg/mL (≈ 47.2 µM); against EPEC/ETEC [20], 31 µg/mL (≈ 209 µM); in the data set with S. aureus [22], 120 µg/mL (≈ 810 µM). For the same compound, the “Time to kill human spermatozoa” value in the data set on human spermatozoa is not above 1 min. The MIC worked out at 250 µg/mL (≈ 1690 µM) in the data set on Shigella [4]; 7 µg/mL (≈ 47.2 µM) against Pseudomonas [5]; 250 µg/mL (≈ 1690 µM) with EPEC/ETEC [6]; 3.5 µg/mL (≈ 23.6 µM) against N. gonorrhoea; 60 µg/mL (≈ 405 µM) in the data set with Archromobacter; 15 µg/mL (≈ 101 µM) with Cryptococcus. Moreover, the MIC in the data set on S. aureus [12] turned out to be 250 µg/mL (≈ 1690 µM); against Tri. violaceum it was 150 µg/mL (≈ 1010 µM); in the data set with S. epidermidis it was 25 µg/mL (≈ 169 µM); against Penicillium, 310 µg/mL (≈ 2090 µM); against Ph. verrucose, 150 µg/mL (≈ 1010 µM); in the data set with Salmonella [16], 7 µg/mL (≈ 47.2 µM). For the same compound, the MIC turned out to be 31 µg/mL (≈ 209 µM) with C. albicans, 150 µg/mL (≈ 1010 µM) with Tri. canis, 7 µg/mL (≈ 47.2 µM) against Kiebisella and 120 µg/mL (≈ 810 µM) with E. coli. Also, the MIC broth against Candida [8] is 310 µg/mL (≈ 2090 µM); in the data set on S. aureus [13], 620 µg/mL (≈ 4180 µM); in the data set on Salmonella [17] it was 150 µg/mL (≈ 1010 µM); with Pseudomonas [21], 620 µg/mL (≈ 4180 µM); against EPEC/ETEC [24] it was 620 µg/mL (≈ 4180 µM); in the data set with Shigella [25] it was 620 µg/mL (≈ 4180 µM). Moreover, the “lowest concentration inhibiting at least one isolate” value with N. gonorrhoea was determined as 0.0019 mg/mL; in the data set on S. aureus [12] it was 0.031 mg/mL; in the data set with S. epidermidis, 0.031 mg/mL. Further, in data set [9], the “Activity compared with Geraniol trioxolane” value is on record as “more active than Geraniol trioxolane”. For the same compound, the “Activity compared with conventional drugs” value in data set [9] was “more active than conventional drugs”. In data set [9], the “Effect of water on direct bioactivity” value is reported as “significantly reduces the direct bioactivity”. In addition, in the data set with lymphocytes, the “New clones of lymphocytes in bone marrow” value is on record as “increase in new clones of lymphocytes”. Besides, the “Time to kill myeloma cell line” value in data set [23] is not above 48 h. The “Clearing parasites from the viscera” value in the data set on Leishmania donova was “perform better than Pentostam”.
Consider `O.O.O.O.O.O.O.O.O.O=C([O-])[C@@H]1[O][Sb](=[O])([O][Sb]2(=[O])[O][C@H]([C@H](O)CO)[C@H](O)[C@H](C(=O)[O-])[O]2)[O][C@H]([C@H](O)CO)[C@@H]1O.[Na+].[Na+].[Na+]` (some centres unmarked) [Pentostam, reference compound], for which, in the data set on Leishmania major (ip), the “Dead, Day 14” value worked out at 1 dead; the “Lesions, Day 0” value is given as “Large lesions”; the “Lesions, Day 14” value is on record as “Large lesions breaking”.
Consider linalool trioxolane, for which the Ocular irritation entry in [26] is on record as “non-irritant to ocular tissues of the rabbit”.
